This assay concerns Primary Epidermal Keratinocytes (PEK), Normal, Human, Adult. The assay is described as follows: In vitro Scratch Assay of keratinocytes (with and without mitomycin c). The format is cell-based. Particulars: media/control group, no hydrogel. An excerpt: 1. Maintain stock cultures of Primary Epidermal Keratinocytes (PEK), Normal, Human, Adult cells in Dermal Cell Basal Medium supplemented with Keratinocyte Growth Kit and Gentamicin-Amphotericin B Solution (Complete Medium). Subculture the stock cultures of cells to 2.5×10^4 cells/ml (estimate) and re-feed with complete medium every 2 days or when a density of near confluence is reached. 2. To each well of a 24 well plate add appropriate test substances. Row A, Columns 1-3: blank, no cells, medium only. Row B, Columns 1-3: baseline, cells only, no coating. Row C-D, Columns 1-3 and Rows A-D, Columns 4-6: test substances at determined previously, in a serial dilution series as necessary. 3. Harvest cells and wash the PEK cells in Media by centrifugation at 150×g for 3 to5 minutes. 4. Determine cell number and viability (by trypan blue exclusion), and suspend the cells to a final concentration of 5×10^4 cells/ml in Media. 5. Dispense 600 μl of the cell suspension (30,000 cells) into all wells of the plate prepared in Step 2. 6. […]
In vitro Scratch Assay was performed according to the above protocol. […] In vitro re-epithelialization was documented by photography, and the amount of migration was manually quantified by computer-assisted image analysis. The data was expressed as a percentage of the area of the scratch filled by keratinocytes (FIG. 7). […]

Turning to `CO[C@@]12[C@H](COC(N)=O)C3=C(C(=O)C(C)=C(N)C3=O)N1C[C@@H]1N[C@@H]12` [MMC, mitomycin c], the “healing of the scratch, MMC+ cells compared to MMC− cells” value is on record as “delayed healing”.

The values above are taken from patent US20220193301A1, “CELL SUSPENSION AND USE THEREOF” (AVITA Medical, Inc., priority 2012, published 2022).
